biological target: T1, Gag-Pol polyprotein [588-1027]/[588-1147] (Human immunodeficiency virus 1, UniProt P04585); experiment: HIV-1 RT Assay; conditions: not given
T1 construct: 588-1027; 588-1147

| Compound | IC50 |
| --- | --- |
| S=C(NCCc1ccncc1)Nc1nccs1 [1-[2-(pyridin-4-yl)ethyl]-3-1,3-thiazol-2-ylthiourea] | > 10 µM |
| S=C(NCCc1cccnc1)Nc1nccs1 [1-[2-(pyridin-3-yl)ethyl]-3-1,3-thiazol-2-ylthiourea] | > 10 µM |
| CCCCCCOc1cccc(CC/N=C(\S)Nc2nccs2)c1 [N-(2-(3-(Hexyloxy)phenethyl))-N -(2-thiazolyl)thiourea] | > 10 µM |

same assay, conditions: pH 7.8; 37 °C

| Compound | IC50 |
| --- | --- |
| S=C(NCCc1ccccc1)Nc1cc[nH]n1 [N-(2-Phenethyl)-N -(3-pyrazolyl)thiourea] | > 10 µM |
| CCc1csc(NC(=S)NCCc2c(F)cccc2F)n1 [N-(2-(2,6-Difluorophenyl)ethyl)-N -(2-(4-ethylthiazolyl))thiourea] | 0.0055 µM |
| Cc1csc(NC(=S)NCCc2ccccc2)n1 [3-(4-methyl-1,3-thiazol-2-yl)-1-(2-phenylethyl)thiourea] | 0.1 µM |
| O=C(O)c1csc(/N=C(\S)NCCc2ccccc2)n1 [2-{[(2-phenylethyl)carbamothioyl]amino}-1,3-thiazole-4-carboxylic acid] | > 10 µM |
| S=C(NCCc1ccccc1)Nc1ncccc1Br [N-(2-Phenethyl)-N -(2-(3-bromopyridyl))thiourea] | > 10 µM |
